From PubChem BioAssay (NCI)
Values joined by “and” are separate entries in the source; they are usually repeats but may differ in a detail not shown here. Equal entries are not always repeated.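 Where inhibition never reached the appropriate level, the endpoint shown equals the highest concentration tested. Otherwise, values were interpolated linearly from a five-concentration, 48-hour dose response in 96-well plates. Here, GI50 denotes the concentration required for 50% inhibition of growth. TGI: concentration producing complete growth inhibition.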

What was measured:
Experiment in all cases: NCI-60 cell line screen, 48 h
CAKI-1 renal = tested on: CAKI-1 renal
CCRF-CEM leukemia = tested on: CCRF-CEM leukemia
DU-145 prostate = tested on: DU-145 prostate
HL-60(TB) leukemia = tested on: HL-60(TB) leukemia
HOP-62 NSCLC = tested on: HOP-62 NSCLC
HS 578T breast = tested on: HS 578T breast
LOX IMVI melanoma = tested on: LOX IMVI melanoma
OVCAR-8 ovarian = tested on: OVCAR-8 ovarian
PC-3 prostate = tested on: PC-3 prostate
SF-295 CNS = tested on: SF-295 CNS

SMILES	GI50 (CAKI-1 renal)	TGI (CAKI-1 renal)	GI50 (CCRF-CEM leukemia)	TGI (CCRF-CEM leukemia)	GI50 (DU-145 prostate)	TGI (DU-145 prostate)	GI50 (HL-60(TB) leukemia)	TGI (HL-60(TB) leukemia)	GI50 (HOP-62 NSCLC)	TGI (HOP-62 NSCLC)	GI50 (HS 578T breast)	TGI (HS 578T breast)	GI50 (LOX IMVI melanoma)	TGI (LOX IMVI melanoma)	GI50 (OVCAR-8 ovarian)	TGI (OVCAR-8 ovarian)	GI50 (PC-3 prostate)	TGI (PC-3 prostate)	TGI (SF-295 CNS)	GI50 (SF-295 CNS)
COc1ccc(-c2nc(-c3nc4ccc(C)cc4[nH]3)cc3c2[nH]c2ccccc23)cc1	3.28 µM	> 100 µM	2.94 µM	18.7 µM	5.02 µM	> 100 µM	4.11 µM	37.7 µM	5.78 µM	> 100 µM	4.94 µM	> 100 µM	3.34 µM	17.1 µM	3.02 µM	> 100 µM	2.74 µM	> 100 µM		
COCCOc1cc(C)cc(/C=C(C)/C=C/C2=C(C)CCCC2(C)C)n1		> 100 µM								> 100 µM				> 100 µM		> 100 µM			> 100 µM	
C1CCCCc2nc3c(nc2CCC1)c1nc2c(nc1c1nc4c(nc31)CCCCCCCC4)CCCCCCCC2				> 100 µM				> 100 µM		> 100 µM				> 100 µM		> 100 µM			> 100 µM	
CC1=C(C(=O)Nc2ccccc2)C(c2ccccc2Cl)C(C(=O)Nc2ccccc2)=C(C)N1		57.2 µM		62.1 µM				31.8 µM		38.5 µM				33.6 µM		91.8 µM			66.9 µM	
CC1OC(=O)C(O)=C1O (stereo not drawn)		> 100 µM		> 100 µM						> 100 µM				> 100 µM		> 100 µM			> 100 µM	
O=[N+]([O-])c1ccc(Cl)c(CNc2ncnc3c2ncn3C2CCCCO2)c1 (stereo not drawn)		> 100 µM				> 100 µM		73.2 µM		> 100 µM		> 100 µM		> 100 µM		> 100 µM		> 100 µM	> 100 µM	
COc1ccc(C2=Nc3ccccc3SC(C)C2)cc1OC (stereo not drawn)		50.4 µM		87.3 µM				59.6 µM						32.9 µM		43.8 µM			38 µM	
COc1ccccc1NC(=O)C1=C(C)NC(C)=C(C(=O)Nc2ccccc2OC)C1/C=C/c1ccccc1		> 100 µM		> 100 µM				> 100 µM		> 100 µM				> 100 µM		> 100 µM			> 100 µM	
Cc1cccc(C(=O)O)c1C(=O)c1cccc2ccccc12		> 100 µM		> 100 µM						> 100 µM				> 100 µM		> 100 µM			> 100 µM	
Clc1ccc(-c2c3ccc(=[N+]4CCCCC4)cc-3oc3cc(N4CCCCC4)ccc23)cc1			0.153 µM	1.97 µM	0.0632 µM	0.214 µM	0.0942 µM	0.471 µM	0.0635 µM	0.202 µM										
CCOC(=O)/C(=C/c1cccc(Cl)c1)N(CC)CC		> 100 µM		> 100 µM				> 100 µM		77.8 µM				> 100 µM		> 100 µM			> 100 µM	
CCOC(=O)c1cc(-c2ccc(-c3cc(C(=O)OCC)c(C#N)c(N)c3C#N)cc2)c(C#N)c(N)c1C#N		> 100 µM		> 100 µM				> 100 µM		> 100 µM				> 100 µM		> 100 µM			> 100 µM	
CCCCCCSSC(=S)N(CC)CC	16.3 µM	36.1 µM			28.7 µM	92.9 µM	18.1 µM	52.3 µM	34.6 µM	> 100 µM	28.3 µM	> 100 µM	15.3 µM	33.1 µM	20 µM	46.6 µM	20.5 µM	57.6 µM	51.1 µM	17.4 µM
COc1cc(/C=C/c2ccc(O)c(OC)c2)cc(OC)c1		> 100 µM		> 100 µM		61.5 µM		78.1 µM		> 100 µM		59.1 µM				> 100 µM		46.8 µM	54.7 µM	
CCCCC#Cc1c(I)n(C)c(=O)[nH]c1=O		0.0843 µM	1.74 µM	3.68 µM	4.42 µM	15.4 µM			16.9 µM	31 µM	2.61 µM	7.16 µM	1.62 µM	2.97 µM	3.36 µM	10.1 µM	12.8 µM	25.4 µM	22.7 µM	10.6 µM
CCN(CC)CC1CCCCN1CC(=O)N1CC(C)C(=O)Nc2ccccc21 (stereo not drawn)		> 100 µM		> 100 µM				> 100 µM		> 100 µM				> 100 µM					> 100 µM	
CCOC(=O)C(Cc1ccc(N(CCCl)CCCl)cc1)NC(=O)C(Cc1ccccc1)NC=O (stereo not drawn)		0.264 µM		0.241 µM		0.38 µM		0.279 µM		0.388 µM				0.301 µM		0.527 µM		0.406 µM	0.523 µM	
CCC(C)CC(C)CC(C)/C=C(\C)C1=C(C)CC(C)(O)O1 (stereo not drawn)		> 100 µM		> 100 µM				79 µM						> 100 µM		> 100 µM				
CC(C)c1cccc(C(C)C)c1N1C(=O)C(=O)C(c2nc3ccccc3o2)C(=O)C1=O		> 100 µM		> 100 µM				> 100 µM		> 100 µM				> 100 µM		> 100 µM			> 100 µM	
COc1ccc(-c2ccc(/C=N/n3c(COc4ccccc4Cl)nn(CN4CCOCC4)c3=S)o2)c([N+](=O)[O-])c1	21.3 µM	56.3 µM	18.7 µM	47.9 µM	34.1 µM	> 100 µM	17 µM	39 µM	30 µM	85.5 µM	33.9 µM	90.4 µM			39.4 µM	> 100 µM	20.7 µM	61.4 µM	> 100 µM	38.1 µM
CN1Cc2ccccc2/C=C\c2ccccc21		> 100 µM		> 100 µM		> 100 µM				> 100 µM		> 100 µM		> 100 µM		> 100 µM		> 100 µM	> 100 µM	
CC(C)c1cc(C(C)C)c(S(=O)(=O)N=[N+]=[N-])c(C(C)C)c1		> 100 µM		> 100 µM				> 100 µM		> 100 µM				> 100 µM		> 100 µM				
CCCCCC(O)C(O)CCC[C@H](O)[C@H]1CC[C@H]([C@H]2CC[C@H]([C@H](O)CCCCCCCCCCCCC3=C[C@H](C)OC3=O)O2)O1 (stereo partly drawn)	15.3 µM	36.5 µM		8.35 µM				4.28 µM	15.2 µM	32 µM			1.76 µM	2.93 µM and 14.4 µM	7.24 µM	> 100 µM	9.15 µM	25.4 µM		
